Test results reported in the OPERA property sets (Mansouri et al. 2018).

Question: With `CCOC=C(C#N)C#N` as the compound, how does the melting point read?
Answer: The melting point was 66 °C.

Question: With `C=CCC(CC=C)(C(=O)OCC)C(=O)OCC` as the compound, how does the boiling point read?
Answer: Its boiling point is 244 °C.

Question: With `CC(=NO)c1ccccc1` as the compound, how does the boiling point read?
Answer: Its boiling point is 245 °C.

Question: What about the melting point of the same compound?
Answer: Its melting point is 60 °C.

Question: Which boiling point does the source give for `CC1=CC(=O)CC(C)(C)C1` here?
Answer: The boiling point was 215 °C.

Question: What about the log10 Koc (L/kg) of the same compound?
Answer: The log10 Koc (L/kg) was 1.4.

Question: What about the log10 vapour pressure (mmHg) of the same compound?
Answer: The log10 vapour pressure (mmHg) was -0.358.

Question: And the melting point?
Answer: The melting point was -8.1 °C.

Question: And the ready biodegradability?
Answer: Its ready biodegradability is “readily biodegradable”.

Question: Which boiling point does the source give for `CCCOc1ccccc1O` here?
Answer: The boiling point was 227 °C.

Question: With `Cc1ccccn1` as the compound, how does the boiling point read?
Answer: Its boiling point is 129 °C.

Question: And the log10 Henry constant (atm·m³/mol)?
Answer: Its log10 Henry constant (atm·m³/mol) is -5.

Question: And the log10 vapour pressure (mmHg)?
Answer: The log10 vapour pressure (mmHg) was 1.05.

Question: And the melting point?
Answer: Its melting point is -66.7 °C.

Question: And the ready biodegradability?
Answer: The ready biodegradability was “readily biodegradable”.

Question: With `Oc1cc(Cl)cc(Cl)c1` as the compound, how does the boiling point read?
Answer: Its boiling point is 233 °C.

Question: And the log10 Koc (L/kg)?
Answer: The log10 Koc (L/kg) was 2.83.

Question: What about the log10 vapour pressure (mmHg) of the same compound?
Answer: Its log10 vapour pressure (mmHg) is -2.07.

Question: And the melting point?
Answer: The melting point was 68 °C.

Question: What about the ready biodegradability of the same compound?
Answer: Its ready biodegradability is “not readily biodegradable”.

Question: With `Cc1cccc(O)c1C(=O)O` as the compound, how does the melting point read?
Answer: Its melting point is 173 °C.

Question: Which boiling point does the source give for `Cc1ccc2c(c1)CCCC2(C)C` here?
Answer: The boiling point was 240 °C.

Question: For `CS(=O)(=O)c1ccc(C(=O)C2C(=O)CCCC2=O)c(Cl)c1`, which log10 vapour pressure (mmHg) is on record?
Answer: Its log10 vapour pressure (mmHg) is -7.43.

Question: And the melting point?
Answer: Its melting point is 139 °C.

Question: With `O=C(O)CCCCCCCC(=O)O` as the compound, how does the log10 vapour pressure (mmHg) read?
Answer: The log10 vapour pressure (mmHg) was -7.97.

Question: And the melting point?
Answer: Its melting point is 106 °C.

Question: For `CC(=O)c1cc(C)c(C)cc1C`, which boiling point is on record?
Answer: The boiling point was 246 °C.

Question: What about the melting point of the same compound?
Answer: The melting point was 10.5 °C.

Question: For `Oc1c(Br)cc(Br)c2cccnc12`, which melting point is on record?
Answer: The melting point was 196 °C.

Question: Which melting point does the source give for `N=C(N)c1ccc(N)cc1` here?
Answer: The melting point was 182 °C.

Question: Which melting point does the source give for `Cc1cc(C2(c3ccc(O)c(C)c3)OC(=O)c3ccccc32)ccc1O` here?
Answer: The melting point was 223 °C.

Question: What does the source list for `c1ccc2[nH]c(-c3cscn3)nc2c1`?
Answer: log10 Koc (L/kg): 3.24; log10 vapour pressure (mmHg): -8.4; melting point: 300 °C

Question: With `CCN1C(=O)c2ccccc2C1=O` as the compound, how does the boiling point read?
Answer: Its boiling point is 286 °C.

Question: And the melting point?
Answer: The melting point was 79 °C.

Question: For `OC(c1ccccc1)(c1ccccc1)C1CCNCC1`, which melting point is on record?
Answer: The melting point was 160 °C.

Question: Which log10 Koc (L/kg) does the source give for `O=C(O)c1ccccc1C(=O)O` here?
Answer: Its log10 Koc (L/kg) is 1.07.

Question: What about the log10 vapour pressure (mmHg) of the same compound?
Answer: The log10 vapour pressure (mmHg) was -6.2.

Question: What about the ready biodegradability of the same compound?
Answer: Its ready biodegradability is “readily biodegradable”.

Question: Which boiling point does the source give for `CC(O)C(C)Cl` (stereo unspecified) here?
Answer: Its boiling point is 139 °C.

Question: With `ClC=CCCl` (mixture of isomers) as the compound, how does the boiling point read?
Answer: Its boiling point is 109 °C.

Question: And the log10 Henry constant (atm·m³/mol)?
Answer: The log10 Henry constant (atm·m³/mol) was -2.62.

Question: And the log10 Koc (L/kg)?
Answer: Its log10 Koc (L/kg) is 1.67.

Question: What about the melting point of the same compound?
Answer: The melting point was -50 °C.

Question: With `CC(=O)C(=O)c1ccccc1` as the compound, how does the boiling point read?
Answer: Its boiling point is 222 °C.

Question: For `O=C1c2ccccc2C(=O)C1c1ccc(Cl)cc1`, which melting point is on record?
Answer: Its melting point is 146 °C.

Question: For `O=C=Nc1cccc2ccccc12`, which boiling point is on record?
Answer: Its boiling point is 269 °C.

Question: With `CCN(CC)CCOC(=O)C(c1ccccc1)c1ccccc1` as the compound, how does the melting point read?
Answer: The melting point was 114 °C.

Question: Which melting point does the source give for `C(=C(c1ccccc1)c1ccccc1)c1ccccc1` here?
Answer: Its melting point is 72.5 °C.

Question: With `COc1c(OC)c(OC(C)=O)c2cc(Cl)ccc2c1OC(C)=O` as the compound, how does the melting point read?
Answer: The melting point was 91.5 °C.

Question: For `O=C1Nc2ccc(Br)cc2C1=O`, which melting point is on record?
Answer: The melting point was 250 °C.

Question: Which melting point does the source give for `C[C@]12CCC(=O)C(O)=C1CC[C@@H]1[C@@H]2CC[C@@]2(C)[C@H]1CC[C@]2(C)O` here?
Answer: Its melting point is 170 °C.

Question: With `CCc1cc(C)nc(C)c1` as the compound, how does the boiling point read?
Answer: The boiling point was 188 °C.

Question: And the melting point?
Answer: The melting point was 97 °C.

Question: With `C/C=C/CCCO` as the compound, how does the boiling point read?
Answer: Its boiling point is 159 °C.

Question: With `Nc1ccc(Cc2ccc(N)c(Cl)c2)cc1Cl` as the compound, how does the boiling point read?
Answer: Its boiling point is 379 °C.

Question: And the melting point?
Answer: Its melting point is 110 °C.

Question: What about the ready biodegradability of the same compound?
Answer: The ready biodegradability was “not readily biodegradable”.

Question: What does the source list for `CC(C)(C)N`?
Answer: boiling point: 45 °C; log10 vapour pressure (mmHg): 2.57; melting point: -72.7 °C; ready biodegradability: not readily biodegradable

Question: Which melting point does the source give for `NC(=O)c1ccccc1OCC(=O)O` here?
Answer: Its melting point is 221 °C.

Question: With `CC(C)c1ccc(O)c(O)c1` as the compound, how does the boiling point read?
Answer: Its boiling point is 271 °C.

Question: And the melting point?
Answer: The melting point was 78 °C.

Question: For `ClC(C(Cl)(Cl)Cl)C(Cl)(Cl)Cl`, which boiling point is on record?
Answer: The boiling point was 249 °C.

Question: What about the melting point of the same compound?
Answer: The melting point was 11 °C.

Question: Which melting point does the source give for `Cc1cc(Br)cc(Br)c1O` here?
Answer: Its melting point is 58 °C.

Question: With `Cc1cc(Cl)ccc1OC(C)C(=O)O` (stereo unspecified) as the compound, how does the boiling point read?
Answer: Its boiling point is 298 °C.

Question: What about the log10 Koc (L/kg) of the same compound?
Answer: The log10 Koc (L/kg) was 1.3.

Question: And the melting point?
Answer: Its melting point is 94.5 °C.

Question: With `O=C(O)C=Cc1cccc(C(F)(F)F)c1` as the compound, how does the melting point read?
Answer: Its melting point is 136 °C.

Question: For `CC(=O)OC1CCCCC1C(C)(C)C` (stereo unspecified), which melting point is on record?
Answer: Its melting point is 35 °C.

Question: With `O=C(O)C1CCCCN1` (stereo unspecified) as the compound, how does the melting point read?
Answer: Its melting point is 264 °C.

Question: Which melting point does the source give for `N#Cc1c(F)c(F)c(F)c(F)c1C#N` here?
Answer: The melting point was 83 °C.

Question: For `Clc1cccc(-c2ccccc2)c1Cl`, which log10 Henry constant (atm·m³/mol) is on record?
Answer: Its log10 Henry constant (atm·m³/mol) is -3.64.

Question: For `CC(C)C(=O)OCC(C)(C)C(O)C(C)C` (stereo unspecified), which ready biodegradability is on record?
Answer: Its ready biodegradability is “readily biodegradable”.

Question: With `CC(=O)Cl` as the compound, how does the boiling point read?
Answer: Its boiling point is 50.7 °C.

Question: What about the log10 vapour pressure (mmHg) of the same compound?
Answer: Its log10 vapour pressure (mmHg) is 2.46.

Question: What about the melting point of the same compound?
Answer: The melting point was -113 °C.

Question: For `C=Cc1ccc(OC)cc1`, which boiling point is on record?
Answer: The boiling point was 205 °C.

Question: What does the source list for `Clc1ccc(-c2ccccc2Cl)cc1Cl`?
Answer: log10 Henry constant (atm·m³/mol): -3.8; log10 vapour pressure (mmHg): -3.99

Question: With `C=CCCCCCCCCCCCCC` as the compound, how does the boiling point read?
Answer: Its boiling point is 268 °C.

Question: What about the log10 vapour pressure (mmHg) of the same compound?
Answer: The log10 vapour pressure (mmHg) was -2.34.

Question: And the melting point?
Answer: Its melting point is -2.8 °C.

Question: What does the source list for `C=CCc1ccc2c(c1)OCO2`?
Answer: boiling point: 234 °C; log10 Koc (L/kg): 2.83; melting point: 11.2 °C

Question: With `Clc1cc2cc(Cl)c(Cl)cc2cc1Cl` as the compound, how does the log10 Koa read?
Answer: The log10 Koa was 8.45.

Question: With `CCCCCN` as the compound, how does the boiling point read?
Answer: Its boiling point is 104 °C.

Question: And the log10 Henry constant (atm·m³/mol)?
Answer: Its log10 Henry constant (atm·m³/mol) is -4.61.

Question: What about the log10 vapour pressure (mmHg) of the same compound?
Answer: Its log10 vapour pressure (mmHg) is 1.48.

Question: And the melting point?
Answer: The melting point was -55 °C.

Question: And the ready biodegradability?
Answer: The ready biodegradability was “readily biodegradable”.

Question: Which melting point does the source give for `O=P(O)(O)CCP(=O)(O)O` here?
Answer: The melting point was 218 °C.

Question: Which boiling point does the source give for `C=CCOC=C` here?
Answer: The boiling point was 66 °C.

Question: For `CC(C)NCC(O)COc1cccc2ccccc12.Cl` (stereo unspecified), which melting point is on record?
Answer: The melting point was 164 °C.

Question: For `FC(F)(Cl)C(F)(F)C(F)(F)C(F)(F)C(F)(F)C(F)(F)C(F)(F)C(F)(F)Cl`, which boiling point is on record?
Answer: Its boiling point is 151 °C.

Question: What does the source list for `CC(=O)O.CCCCCCCCCCCCNC(=N)N`?
Answer: log10 vapour pressure (mmHg): -6.82; melting point: 136 °C

Question: With `Cc1ccc2occc2c1` as the compound, how does the boiling point read?
Answer: The boiling point was 198 °C.

Question: With `CC(C)NCC(O)COc1ccc(CCOCC2CC2)cc1` (stereo unspecified) as the compound, how does the melting point read?
Answer: Its melting point is 71 °C.

Question: Which boiling point does the source give for `FC(F)(Cl)C(F)(Cl)C(F)(F)Cl` here?
Answer: The boiling point was 73.7 °C.

Question: And the melting point?
Answer: The melting point was -72 °C.

Question: Which log10 Henry constant (atm·m³/mol) does the source give for `Clc1ccc(-c2ccccc2)c(Cl)c1` here?
Answer: Its log10 Henry constant (atm·m³/mol) is -3.55.

Question: And the log10 vapour pressure (mmHg)?
Answer: The log10 vapour pressure (mmHg) was -2.86.

Question: With `FC(F)(F)c1nc2c(Cl)c(Cl)ccc2[nH]1` as the compound, how does the melting point read?
Answer: Its melting point is 214 °C.

Question: For `CS(=O)(=O)c1ccc(C(=O)O)cc1`, which melting point is on record?
Answer: The melting point was 270 °C.

Question: For `Cc1cccc(C)c1NC1=NCCCS1`, which melting point is on record?
Answer: The melting point was 140 °C.
